Some test systems named below: CCRF-CEM leukemia; HOP-92 NSCLC; IGROV1 ovarian; NCI-H226 lung; OVCAR-8 ovarian; SF-295 CNS; SK-MEL-2 melanoma; SR leukemia; U251 CNS; UACC-257 melanoma.
What all share (test): DTP human tumour cell line panel, 48 h

Each structure is given as a SMILES string.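 Step 1: Grow cells in 96-well plates. Step 2: Expose to compound for 48 hours at 5 concentrations. Step 3: Interpolate endpoints linearly; if unreached, use highest concentration. Abbreviation: GI50, concentration required for 50% inhibition of growth. TGI marks complete inhibition of growth.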 Where a SMILES comes first, the peptide text is derived from it. [ ]: non-standard residue; d: D form. The star is where a group is joined. ξ: configuration not given here. NMeN = CN[C@@H](CC(N)=O)C(=O)O; NMeV = CN[C@H](C(=O)O)C(C)C; ξNMeV = CNC(C(=O)O)C(C)C; Boc = CC(C)(C)OC(=O)*; ξNMeA = CNC(C)C(=O)O A value given as a limit tells only on which side of the number the result lay.

What is called TGI is the concentration giving total growth inhibition. A lower TGI goes with more potent growth arrest. Consider `C[C@]12CC[C@H](OCCC#N)CC1=CC[C@@H]1C2CC[C@]2(C)/C(=N/OCCC#N)CCC12` (some centres not stated), for which the TGI was over 100 µM in the experiment with CCRF-CEM leukemia; over 64.4 µM in the experiment on HOP-92 NSCLC; over 100 µM with IGROV1 ovarian; over 100 µM in the experiment with NCI-H226 lung; over 100 µM in the experiment with OVCAR-8 ovarian; over 100 µM in the experiment on SF-295 CNS. In addition, the concentration for total growth inhibition (TGI) with SK-MEL-2 melanoma, in the experiment on SR leukemia, in the experiment with U251 CNS and in the experiment with UACC-257 melanoma was over 100 µM throughout.
Broadly, the GI50 is the concentration giving 50% growth inhibition. On to `C=C[C@H]1CCC/C=C/[C@@H]2C[C@H](O)C[C@H]2[C@H](O)/C=C/C(=O)O1`, for which the GI50 with CCRF-CEM leukemia is 0.0418 µM; with HOP-92 NSCLC, 0.0289 µM; with IGROV1 ovarian, 0.0655 µM; in the experiment with NCI-H226 lung it was under 0.0125 µM; in the experiment with OVCAR-8 ovarian, 0.0374 µM; in the experiment with SF-295 CNS, 0.0537 µM. Moreover, the GI50 was 0.0303 µM in the experiment on SK-MEL-2 melanoma, 0.0319 µM in the experiment with SR leukemia, 0.0428 µM in the experiment on U251 CNS and 0.0864 µM with UACC-257 melanoma. Also, the TGI is over 100 µM with CCRF-CEM leukemia; 2.99 µM in the experiment with HOP-92 NSCLC; over 100 µM in the experiment on IGROV1 ovarian; 0.0289 µM in the experiment with NCI-H226 lung; over 100 µM with OVCAR-8 ovarian; over 100 µM in the experiment on SF-295 CNS. The TGI is 0.0944 µM in the experiment with SK-MEL-2 melanoma, over 100 µM with U251 CNS and over 100 µM in the experiment with UACC-257 melanoma.
Consider `COc1ccc(CNc2c3ccccc3nc3ccc(OC)cc23)cc1`, for which the GI50 is 3.09 µM with CCRF-CEM leukemia; 2.17 µM with HOP-92 NSCLC; 3.02 µM with IGROV1 ovarian; 2.54 µM in the experiment with NCI-H226 lung; 3.04 µM in the experiment on OVCAR-8 ovarian; 1.73 µM in the experiment on SF-295 CNS. The GI50 with SK-MEL-2 melanoma is 2.37 µM; in the experiment with SR leukemia it was 1.86 µM; with U251 CNS, 3.18 µM; in the experiment on UACC-257 melanoma, 2.15 µM. Further, the TGI with CCRF-CEM leukemia amounted to 13.3 µM; in the experiment with HOP-92 NSCLC, 7.69 µM; in the experiment on IGROV1 ovarian, 11.1 µM; with NCI-H226 lung, 9.14 µM; in the experiment with OVCAR-8 ovarian it was 13.5 µM; in the experiment on SF-295 CNS it was 4.27 µM. Moreover, the TGI in the experiment on SK-MEL-2 melanoma turned out to be 6.2 µM; with SR leukemia, 5.81 µM; with U251 CNS, 11.2 µM; with UACC-257 melanoma, 4.81 µM.
Turning to `CCOC(=O)C1=C(Nc2ccc(Cl)cc2Cl)OC/C1=N\NS(=O)(=O)c1ccc(C)cc1`, the total growth inhibition concentration (TGI) in the experiment with CCRF-CEM leukemia, in the experiment on HOP-92 NSCLC, in the experiment with IGROV1 ovarian, in the experiment with NCI-H226 lung, with OVCAR-8 ovarian and with SF-295 CNS was over 100 µM throughout. In addition, the TGI in the experiment on SK-MEL-2 melanoma, in the experiment on SR leukemia, with U251 CNS and in the experiment with UACC-257 melanoma was over 100 µM in each case.
Regarding `NC(=O)c1ccc2c(-c3ccnc(NCCCO)n3)c(-c3ccc(F)cc3)nn2c1`, the GI50 in the experiment on CCRF-CEM leukemia was over 25 µM; in the experiment on HOP-92 NSCLC, over 25 µM; with IGROV1 ovarian, 12.9 µM; in the experiment on NCI-H226 lung it was over 25 µM; with OVCAR-8 ovarian it was over 25 µM; with SF-295 CNS, over 25 µM. Also, the GI50 with SK-MEL-2 melanoma, with SR leukemia, with U251 CNS and in the experiment with UACC-257 melanoma was over 25 µM each time. The total growth inhibition concentration (TGI) in the experiment on CCRF-CEM leukemia, with HOP-92 NSCLC, with IGROV1 ovarian, in the experiment on NCI-H226 lung, in the experiment on OVCAR-8 ovarian and with SF-295 CNS was over 25 µM in each case. In addition, the TGI in the experiment with SK-MEL-2 melanoma, in the experiment with SR leukemia, in the experiment with U251 CNS and with UACC-257 melanoma was over 25 µM throughout.
`Cc1cccc(C)c1NC(=O)CCc1nnc2s/c(=C\c3ccc(Cl)cc3)c(=O)n12`: the concentration for total growth inhibition (TGI) in the experiment with CCRF-CEM leukemia, in the experiment on HOP-92 NSCLC, with IGROV1 ovarian, in the experiment with NCI-H226 lung, in the experiment on OVCAR-8 ovarian and in the experiment on SF-295 CNS was over 100 µM in each case. Besides, the total growth inhibition concentration (TGI) in the experiment with SK-MEL-2 melanoma, in the experiment on SR leukemia, in the experiment with U251 CNS and in the experiment with UACC-257 melanoma was over 100 µM in each case.
On to `COC(=O)C(C)N(C)C(=O)[C@H](CC(N)=O)N(C)C(=O)[C@@H]1CCCN1C(=O)[C@H](C(C)C)N(C)C(=O)C(C(C)C)N(C)C(=O)[C@@H](NC(=O)OC(C)(C)C)C(C)C` (some centres not stated) (Boc-V[ξNMeV][NMeV]P[NMeN][ξNMeA]-OMe), for which the GI50 in the experiment with CCRF-CEM leukemia is 65.7 µM; in the experiment on HOP-92 NSCLC, over 100 µM; in the experiment with IGROV1 ovarian it was over 100 µM; with NCI-H226 lung, over 100 µM; in the experiment on SF-295 CNS it was over 100 µM; in the experiment on SK-MEL-2 melanoma it was over 100 µM. Besides, the GI50 with U251 CNS and in the experiment with UACC-257 melanoma was over 100 µM each time. For the same molecule, the TGI with CCRF-CEM leukemia, with HOP-92 NSCLC, in the experiment on IGROV1 ovarian, in the experiment with NCI-H226 lung, in the experiment with OVCAR-8 ovarian and in the experiment with SF-295 CNS was over 100 µM in each case. Besides, the TGI in the experiment with SK-MEL-2 melanoma, in the experiment with SR leukemia, in the experiment on U251 CNS and in the experiment on UACC-257 melanoma was over 100 µM in each case.

(Values after PubChem BioAssay (NCI).)
